Measurements published in patent US20250049970A1, “DLL3 TARGETING PEPTIDES AND CONSTRUCTS THEREOF” (MARIANA ONCOLOGY INC., priority 2023, published 2025).
*1 amine or outer side, *2 acyl side, *3 side chain or, on linkers, in order; H or OH if unused. Where a SMILES comes first, the peptide text is derived from it. Bridges are numbered along the chain shown (N, C = ends). [ ]: non-standard residue; d: D form. The star is where a group is joined. Ala(piperidin-4-yl) = O=C([C@H](CC1CCN([*:3])CC1)N[*:1])[*:2]; DOTA = O=C(O)CN1CCN(CC(=O)O)CCN(CC(=O)*)CCN(CC(=O)O)CC1; Phe(4-CF3) = N[C@@H](Cc1ccc(C(F)(F)F)cc1)C(=O)O; Trp(7-aza) = N[C@@H](Cc1c[nH]c2ncccc12)C(=O)O; Trp(1-Me) = Cn1cc(C[C@H](N)C(=O)O)c2ccccc21; Bip = N[C@@H](Cc1ccc(-c2ccccc2)cc1)C(=O)O; Phe(4-F) = N[C@@H](Cc1ccc(F)cc1)C(=O)O; 2Nal = N[C@@H](Cc1ccc2ccccc2c1)C(=O)O; tBuAla = CC(C)(C)C[C@H](N)C(=O)O; Chg = N[C@H](C(=O)O)C1CCCCC1; Dab = NCC[C@H](N)C(=O)O; CH2 = C([*:1])[*:2]

target: T1, DLL3 (Homo sapiens, UniProt Q9NYJ7); assay: SPR KD, biotinylated human DLL3 on streptavidin chip (Table 8); parameters: biotin (biotinylated); settings: biotinylated human DLL3 on streptavidin sensor chip, 25° C., 1:1 binding model; read-out: SPR KD
T1 sequence (Q9NYJ7 27-618): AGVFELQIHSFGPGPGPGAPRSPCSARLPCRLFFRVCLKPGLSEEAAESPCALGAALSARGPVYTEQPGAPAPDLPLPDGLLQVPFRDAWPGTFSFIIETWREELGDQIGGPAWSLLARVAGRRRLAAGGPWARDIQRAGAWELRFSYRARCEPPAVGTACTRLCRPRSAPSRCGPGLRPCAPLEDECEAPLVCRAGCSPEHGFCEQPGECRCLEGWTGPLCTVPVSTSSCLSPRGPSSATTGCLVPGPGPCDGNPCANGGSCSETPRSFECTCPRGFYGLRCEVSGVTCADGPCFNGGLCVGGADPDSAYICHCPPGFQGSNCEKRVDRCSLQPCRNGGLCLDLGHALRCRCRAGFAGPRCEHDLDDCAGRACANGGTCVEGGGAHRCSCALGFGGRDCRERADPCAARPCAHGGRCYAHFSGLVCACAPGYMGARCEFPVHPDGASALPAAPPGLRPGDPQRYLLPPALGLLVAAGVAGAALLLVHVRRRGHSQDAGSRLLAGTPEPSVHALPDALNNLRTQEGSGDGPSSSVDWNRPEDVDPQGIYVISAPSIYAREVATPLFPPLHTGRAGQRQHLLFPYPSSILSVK
Description: Biotinylated target ligand human DLL3 was immobilized on a streptavidin sensor chip. A reference surface was set up for nonspecific binding and refractive index changes. […] Sensorgram curves were fitted with 1:1 binding model, and affinity and kinetic parameters were obtained using Biacore Insight evaluation 4.0. software.

**Q.** `CC[C@H](C)[C@H](NC(=O)[C@@H](NC(=O)[C@H](Cc1cn(C)c2ccccc12)NC(=O)[C@H](CCSC)NC(C)=O)[C@@H](C)O)C(=O)N[C@H]1CSSC[C@@H](C(=O)N[C@@H](Cc2c[nH]c3ccccc23)C(=O)N2CCC[C@H]2C(N)=O)NC(=O)[C@H](CC(=O)O)NC(=O)[C@H](Cc2cnc[nH]2)NC(=O)[C@H](Cc2c[nH]c3ccccc23)NC(=O)[C@H](CC(N)=O)NC(=O)[C@H](CC(N)=O)NC1=O` [compound 41, Ac-M-(1Me-W)-T-I-C(3)-N-N-W-H-D-C(3)-W-P-CONH2] (Ac-M[Trp(1-Me)]TICNNWHDCWP-NH2; disulfide 5-11) was tested. Which Kd did it give?
**A.** 10 to 100 nM

**Q.** For `CC[C@H](C)[C@H](NC(=O)[C@@H](NC(=O)[C@H](Cc1c[nH]c2ccccc12)NC(=O)[C@H](CCSC)NC(C)=O)[C@@H](C)O)C(=O)N[C@H]1CSSC[C@@H](C(=O)N[C@@H](Cc2c[nH]c3ccccc23)C(=O)N2CCC[C@H]2C(N)=O)NC(=O)[C@H](CC(=O)O)NC(=O)[C@H](Cc2cnc[nH]2)NC(=O)[C@H](Cc2cn(C)c3ccccc23)NC(=O)[C@H](CC(N)=O)NC(=O)[C@H](CC(N)=O)NC1=O` [compound 42, Ac-M-W-T-I-C(3)-N-N-(1Me-W)-H-D-C(3)-W-P-CONH2] (Ac-MWTICNN[Trp(1-Me)]HDCWP-NH2; disulfide 5-11), which Kd is on record?
**A.** 10 to 100 nM

**Q.** How did the Kd turn out when `CC[C@H](C)[C@H](NC(=O)[C@@H](NC(=O)[C@H](Cc1c[nH]c2ccccc12)NC(=O)[C@H](CCSC)NC(C)=O)[C@@H](C)O)C(=O)N[C@H]1CSSC[C@@H](C(=O)N[C@@H](Cc2cn(C)c3ccccc23)C(=O)N2CCC[C@H]2C(N)=O)NC(=O)[C@H](CC(=O)O)NC(=O)[C@H](Cc2c[nH]cn2)NC(=O)[C@H](Cc2c[nH]c3ccccc23)NC(=O)[C@H](CC(N)=O)NC(=O)[C@H](CC(N)=O)NC1=O` [compound 43, Ac-M-W-T-I-C(3)-N-N-W-H-D-C(3)-(1Me-W)-P-CONH2] (Ac-MWTICNNWHDC[Trp(1-Me)]P-NH2; disulfide 5-11) was run?
**A.** 10 to 100 nM

**Q.** For `CSCC[C@H](NC(C)=O)C(=O)N[C@@H](Cc1c[nH]c2ccccc12)C(=O)N[C@H](C(=O)N[C@H](C(=O)N[C@H]1CSSC[C@@H](C(=O)N[C@@H](Cc2c[nH]c3ccccc23)C(=O)N2CCC[C@H]2C(N)=O)NC(=O)[C@H](CC(=O)O)NC(=O)[C@H](Cc2cnc[nH]2)NC(=O)[C@H](Cc2c[nH]c3ccccc23)NC(=O)[C@H](CC(N)=O)NC(=O)[C@H](CC(N)=O)NC1=O)C1CCCCC1)[C@@H](C)O` [compound 44, Ac-M-W-T-(Chg)-C(3)-N-N-W-H-D-C(3)-W-P-CONH2] (Ac-MWT[Chg]CNNWHDCWP-NH2; disulfide 5-11), which Kd is on record?
**A.** 1 to 10 nM

**Q.** Which Kd does the source give for `CSCC[C@H](NC(C)=O)C(=O)N[C@@H](Cc1c[nH]c2ccccc12)C(=O)N[C@H](C(=O)N[C@@H](Cc1ccc2ccccc2c1)C(=O)N[C@H]1CSSC[C@@H](C(=O)N[C@@H](Cc2c[nH]c3ccccc23)C(=O)N2CCC[C@H]2C(N)=O)NC(=O)[C@H](CC(=O)O)NC(=O)[C@H](Cc2cnc[nH]2)NC(=O)[C@H](Cc2c[nH]c3ccccc23)NC(=O)[C@H](CC(N)=O)NC(=O)[C@H](CC(N)=O)NC1=O)[C@@H](C)O` [compound 46, Ac-M-W-T-(2Nal)-C(3)-N-N-W-H-D-C(3)-W-P-CONH2] (Ac-MWT[2Nal]CNNWHDCWP-NH2; disulfide 5-11) here?
**A.** 10 to 100 nM

**Q.** For `CC[C@H](C)[C@H](NC(=O)[C@@H](NC(=O)[C@H](Cc1c[nH]c2ccccc12)NC(C)=O)[C@@H](C)O)C(=O)N[C@H]1CSSC[C@@H](C(=O)N[C@@H](Cc2c[nH]c3ccccc23)C(=O)N2CCC[C@H]2C(N)=O)NC(=O)[C@H](CC(=O)O)NC(=O)[C@H](Cc2c[nH]cn2)NC(=O)[C@H](Cc2ccc(F)cc2)NC(=O)[C@H](CC(N)=O)NC(=O)[C@H](CC(N)=O)NC1=O` [compound 49, Ac-W-T-I-C(3)-N-N-(4Fluoro-F)-H-D-C(3)-W-P-CONH2] (Ac-WTICNN[Phe(4-F)]HDCWP-NH2; disulfide 4-10), which Kd is on record?
**A.** 1 to 10 nM

**Q.** Which Kd does the source give for `CC[C@H](C)[C@H](NC(=O)[C@@H](NC(=O)[C@H](Cc1c[nH]c2ccccc12)NC(C)=O)[C@@H](C)O)C(=O)N[C@H]1CSSC[C@@H](C(=O)N[C@@H](Cc2c[nH]c3ccccc23)C(=O)N2CCC[C@H]2C(N)=O)NC(=O)[C@H](CC(=O)O)NC(=O)[C@H](Cc2c[nH]cn2)NC(=O)[C@H](Cc2ccc(C(F)(F)F)cc2)NC(=O)[C@H](CC(N)=O)NC(=O)[C@H](CC(N)=O)NC1=O` [compound 50, Ac-W-T-I-C(3)-N-N-(4CF3-F)-H-D-C(3)-W-P-CONH2] (Ac-WTICNN[Phe(4-CF3)]HDCWP-NH2; disulfide 4-10) here?
**A.** 1 to 10 nM

**Q.** Which Kd does the source give for `CC[C@H](C)[C@H](NC(=O)[C@@H](NC(=O)[C@H](Cc1c[nH]c2ccccc12)NC(C)=O)[C@@H](C)O)C(=O)N[C@H]1CSSC[C@@H](C(=O)N[C@@H](Cc2c[nH]c3ncccc23)C(=O)N2CCC[C@H]2C(N)=O)NC(=O)[C@H](CC(=O)O)NC(=O)[C@H](Cc2c[nH]cn2)NC(=O)[C@H](Cc2c[nH]c3ccccc23)NC(=O)[C@H](CC(N)=O)NC(=O)[C@H](CC(N)=O)NC1=O` [compound 51, Ac-W-T-I-C(3)-N-N-W-H-D-C(3)-(7Aza-W)-P-CONH2] (Ac-WTICNNWHDC[Trp(7-aza)]P-NH2; disulfide 4-10) here?
**A.** 1 to 10 nM

**Q.** `CC[C@H](C)[C@H](NC(=O)[C@@H](NC(=O)[C@H](Cc1c[nH]c2ccccc12)NC(C)=O)[C@@H](C)O)C(=O)N[C@H]1CSSC[C@@H](C(=O)N[C@@H](Cc2ccc(F)cc2)C(=O)N2CCC[C@H]2C(N)=O)NC(=O)[C@H](CC(=O)O)NC(=O)[C@H](Cc2c[nH]cn2)NC(=O)[C@H](Cc2c[nH]c3ccccc23)NC(=O)[C@H](CC(N)=O)NC(=O)[C@H](CC(N)=O)NC1=O` [compound 52, Ac-W-T-I-C(3)-N-N-W-H-D-C(3)-(4Fluoro-F)-P-CONH2] (Ac-WTICNNWHDC[Phe(4-F)]P-NH2; disulfide 4-10) was tested. Which Kd did it give?
**A.** 10 to 100 nM

**Q.** Which Kd does the source give for `CC[C@H](C)[C@H](NC(=O)[C@@H](NC(=O)[C@H](Cc1c[nH]c2ccccc12)NC(C)=O)[C@@H](C)O)C(=O)N[C@H]1CSSC[C@@H](C(=O)N[C@@H](Cc2c[nH]c3ccccc23)C(=O)N2CCC[C@H]2C(N)=O)NC(=O)[C@H](CC(=O)O)NC(=O)[C@H](Cc2cnc[nH]2)NC(=O)[C@H](Cc2ccc(-c3ccccc3)cc2)NC(=O)[C@H](CC(N)=O)NC(=O)[C@H](CC(N)=O)NC1=O` [compound 53, Ac-W-T-I-C(3)-N-N-(BIP)-H-D-C(3)-W-P-CONH2] (Ac-WTICNN[Bip]HDCWP-NH2; disulfide 4-10) here?
**A.** 10 to 100 nM

**Q.** How did the Kd turn out when `CC[C@H](C)[C@H](NC(=O)[C@@H](NC(=O)[C@H](Cc1c[nH]c2ccccc12)NC(C)=O)[C@@H](C)O)C(=O)N[C@H]1CCC(=O)NCC[C@@H](C(=O)N[C@@H](Cc2c[nH]c3ccccc23)C(=O)N2CCC[C@H]2C(N)=O)NC(=O)[C@H](CC(=O)O)NC(=O)[C@H](Cc2c[nH]cn2)NC(=O)[C@H](Cc2c[nH]c3ccccc23)NC(=O)[C@H](CC(N)=O)NC(=O)[C@H](CC(N)=O)NC1=O` [compound 71] (Ac-WTIENNWHD[Dab]WP-NH2; lactam 4-10) was run?
**A.** 100 to 300 nM

**Q.** `CC[C@H](C)[C@H](NC(=O)[C@@H](NC(=O)[C@H](Cc1c[nH]c2ccccc12)NC(=O)[C@H](CCSC)NC(C)=O)[C@@H](C)O)C(=O)N[C@H]1CSSC[C@@H](C(=O)N[C@@H](Cc2c[nH]c3ccccc23)C(=O)N2CCC[C@H]2C(N)=O)NC(=O)[C@H](CC(=O)O)NC(=O)[C@@H](C)NC(=O)[C@H](Cc2c[nH]c3ccccc23)NC(=O)[C@H](CC(N)=O)NC(=O)[C@H](CC(N)=O)NC1=O` [compound 72] (Ac-MWTICNNW[dA]DCWP-NH2; disulfide 5-11) was tested. Which Kd did it give?
**A.** 100 to 300 nM

**Q.** How did the Kd turn out when `CC(=O)N[C@@H](Cc1c[nH]c2ccccc12)C(=O)N[C@H](C(=O)N[C@@H](CC(C)(C)C)C(=O)N[C@H]1CSCSC[C@@H](C(=O)N[C@@H](Cc2c[nH]c3ccccc23)C(=O)N2CCC[C@H]2C(N)=O)NC(=O)[C@H](CC(=O)O)NC(=O)[C@H](CCCCNC(=O)CN2CCN(CC(=O)O)CCN(CC(=O)O)CCN(CC(=O)O)CC2)NC(=O)[C@H](Cc2ccc3ccccc3c2)NC(=O)[C@H](CC(N)=O)NC(=O)[C@H](CC2CCNCC2)NC1=O)[C@@H](C)O` [compound 94] (Ac-WT[tBuAla]C[Ala(piperidin-4-yl)]N[2Nal]K(DOTA)DCWP-NH2; linker 4-10 via CH2) was run?
**A.** < 1 nM

**Q.** How did the Kd turn out when `CC[C@@H](C)[C@@H](NC(=O)[C@H](NC(=O)[C@@H](Cc1c[nH]c2ccccc12)NC(C)=O)[C@H](C)O)C(=O)N[C@H]1CC(=O)NCC[C@@H](C(=O)N[C@@H](Cc2c[nH]c3ccccc23)C(=O)N2CCC[C@H]2C(N)=O)NC(=O)[C@H](CC(=O)O)NC(=O)[C@H](Cc2c[nH]cn2)NC(=O)[C@H](Cc2c[nH]c3ccccc23)NC(=O)[C@H](CC(N)=O)NC(=O)[C@H](CC(N)=O)NC1=O` [compound 95, Ac-W-T-I-(L-Asp)*-N-N-W-H-D-(L-2,4-Dab)*-W-P-CONH2 (* denotes lactam between side chains between L-Asp and L-2,4-Dab)] (Ac-[dW][dT][dI]DNNWHD[Dab]WP-NH2; lactam 4-10) was run?
**A.** 100 to 300 nM
